What is called chromatographic logP is lipophilicity estimated from chromatographic retention. Low readings indicate lower lipophilicity, high ones higher lipophilicity.

Our source for the efficacy and chromatographic logP values is patent publication US20030125325A1, “Pyrazolyl benzyl thioethers” (priority 2001, published 2003).

Structures are written as SMILES.

One data set has as its system Puccinia recondita. In words: Puccinia test (wheat)/protective. The data set is classed as in vivo. Conditions: protective, application rate 100 g/ha, evaluation 10 days after inoculation, 0% = control, 100% = no infection. The procedure: Puccinia test (wheat)/protective
To produce a suitable preparation of active compound, 1 part by weight of active compound is mixed with the stated amounts of solvent and emulsifier, and the concentrate is diluted with water to the desired concentration.
To test for protective activity, young plants are sprayed with the preparation of active compound at the stated application rate. After the spray coating has dried, the plants are sprayed with a conidia suspension of Puccinia recondita. The plants remain in an incubation cabin at 20° C. and 100% relative atmospheric humidity for 48 hours.
The plants are then placed in a greenhouse at a temperature of about 20° C. and a relative atmospheric humidity of 80% to promote the development of rust pustules.
Evaluation is carried out 10 days after the inoculation. 0% means an efficacy which corresponds to that of the control, whereas an efficacy of 100% means that no infection is observed.

The nature of data set [1]: logP determination by HPLC (EEC directive 79/831 Annex V. A8). Type of data set: physicochemical. Conditions: gradient method, acetonitrile/0.1% aqueous phosphoric acid, preparation examples. As to the method:
The logP values were determined in accordance with EEC directive 79/831 Annex V. A8 by HPLC (gradient method, acetonitrile/0.1% aqueous phosphoric acid) […]

In the data set with Puccinia recondita, `CON=C(C1=NOCCO1)c1ccccc1CSc1ccn(-c2ccc(Cl)cc2)n1` [Example 1, [2-({[1-(4-chlorophenyl)-1H-pyrazol-3-yl]sulphanyl}methyl)phenyl](5,6-dihydro-1,4,2-dioxazin-3-yl)methanone O-methyloxime] came in with an efficacy of no less than 98%. In data set [1], the chromatographic logP is 3.69. The compound `CON=C(C(=O)OC)c1ccccc1CSc1ccn(-c2ccc(Br)cc2)n1` [Example 2, methyl [2-({[1-(4-bromophenyl)-1H-pyrazol-3-yl]sulphanyl}methyl)phenyl](methoxyimino)acetate] displayed a chromatographic logP in data set [1] of 4.07.

`CNC(=O)C(=NOC)c1ccccc1CSc1ccn(-c2ccc(Br)cc2)n1` [Example 3, N-methyl-[2-( {[1-(4-bromophenyl)-1H-pyrazol-3-yl]sulphanyl}methyl)phenyl]-(methoxyimino)acetamide]: the chromatographic logP in data set [1] worked out at 3.5.
